Experiment [1] deals with bacteria, fungi and yeasts. The following applies: general statement, no test described, cited from earlier work.
Experiment [2] relates to bacteria, fungi and yeasts. As to the kind of experiment: Antimicrobial efficacy, summary statements over the organisms tested. The format is cell-based. As to the method:
Below, the antimicrobial efficacy of a composition according to the invention consisting of 50% by weight of isosorbide caprylate 1 and 50% by weight of phenoxyethanol against bacteria, fungi and yeasts is examined (hereinbelow, the composition is referred to as “composition A”). For the tests with bacteria, composition A was diluted with butyl polyglycol and then, at 50° C., added to liquid CASO agar (casein-peptone agar) buffered to pH 7 (+/−0.2) in various concentrations (hereinbelow referred to as compositions B1, B2, etc.). For the tests with fungi and yeasts, composition A was diluted with butyl polyglycol and then added to liquid Sabouraud 4% dextrose agar buffered to pH 5.6 (+/−0.2) in various concentrations (hereinbelow referred to as compositions PH1, PH2, etc.). […]
(§1) The minimum inhibitory concentrations for the pure substances isosorbide caprylate 1 and phenoxyethanol were determined analogously. […]
(§2) Analogously to the determination of the antimicrobial activity according to the above example B), the antimicrobial activity of a mixture comprising, firstly, 89.6% by weight of isosorbide dicaprylate and 9.4% by weight of isosorbide monocaprylate (remainder: 1% by weight) (hereinbelow referred to as “isosorbide dicaprylate”) and, secondly, pure isosorbide was determined in further test series.

The next experiment concerns Staphylococcus aureus. The experiment is described as follows: Antimicrobial efficacy, minimum inhibitory concentration (MIC) in agar. Format: cell-based. The following applies: CASO agar pH 7, read-out: MIC of isosorbide. As for the experimental part:
(§3) Below, the antimicrobial efficacy of a composition according to the invention consisting of 50% by weight of isosorbide caprylate 1 and 50% by weight of phenoxyethanol against bacteria, fungi and yeasts is examined (hereinbelow, the composition is referred to as “composition A”). For the tests with bacteria, composition A was diluted with butyl polyglycol and then, at 50° C., added to liquid CASO agar (casein-peptone agar) buffered to pH 7 (+/−0.2) in various concentrations (hereinbelow referred to as compositions B1, B2, etc.). […]
(§4) The minimum inhibitory concentrations for the pure substances isosorbide caprylate 1 and phenoxyethanol were determined analogously.
(§5) The values determined for the minimum inhibitory concentrations “MIC mixture”, stated in Table 1 below, are based on the concentrations of composition A.
(§6) The values determined for the minimum inhibitory concentrations “QA” and “QB”, stated in Table 1 below, have already been corrected for the dilution effect of the butyl polyglycol. […]
as §2

For a further experiment, the system named is Pseudomonas oleovorans. The description is as above. The following applies: Ectopseudomonas oleovorans, CASO agar pH 7, read-out: MIC of isosorbide. Format: cell-based. As to the method: as §3, §4, §5, §6, §2
The next experiment has as its system Escherichia coli. Described as above. The format is cell-based. The following applies: CASO agar pH 7, read-out: MIC of isosorbide. As for the experimental part: (§7) Below, the antimicrobial efficacy of a composition according to the invention consisting of 50% by weight of isosorbide caprylate 1 and 50% by weight of phenoxyethanol against bacteria, fungi and yeasts is examined (hereinbelow, the composition is referred to as “composition A”). For the tests with bacteria, composition A was diluted with butyl polyglycol and then, at 50° C., added to liquid CASO agar (casein-peptone agar) buffered to pH 7 (+/−0.2) in various concentrations (hereinbelow referred to as compositions B1, B2, etc.). For the tests with fungi and yeasts, composition A was diluted with butyl polyglycol and then added to liquid Sabouraud 4% dextrose agar buffered to pH 5.6 (+/−0.2) in various concentrations (hereinbelow referred to as compositions PH1, PH2, etc.). The compositions B1, B2, etc. and PH1, PH2 etc. were each poured into Petri dishes and each inoculated with identical amounts of bacteria, fungi and yeasts. The minimum inhibitory concentration (MIC) is the concentration at which inhibition of the growth of the bacteria, fungi and yeasts in the compositions B1, B2, etc. and PH1, PH2, etc. occurs.
as §1, §6, §2

In another experiment the test system is Citrobacter freundii. Described as above. The format is cell-based. The following applies: CASO agar pH 7, read-out: MIC of isosorbide. As for the experimental part:
as §7, §1, §6, §2

A further experiment deals with Fusarium solani. Described as above. The format is cell-based. The settings on record: Sabouraud 4% dextrose agar pH 5.6, read-out: MIC of isosorbide. As to the method:
as §7, §1, §6, §2

Another experiment concerns Proteus vulgaris. Described as above. The format is cell-based. The settings on record: CASO agar pH 7, read-out: MIC of isosorbide. As for the experimental part:
as §7, §1, §6, §2

Another experiment concerns Pseudomonas aeruginosa. Described as above. Format: cell-based. The following applies: CASO agar pH 7, read-out: MIC of isosorbide. As to the method: as §7, §1, §6, §2
The next experiment has as its system Aspergillus terreus. Described as above. The following applies: Sabouraud 4% dextrose agar pH 5.6, read-out: MIC of isosorbide. The format is cell-based. As to the method: as §7, §1, §6, §2
A further experiment has as its system Penicillium minioluteum. The description is as above. The following applies: Talaromyces minioluteus, Sabouraud 4% dextrose agar pH 5.6, read-out: MIC of isosorbide. Format: cell-based. As to the method:
as §7, §1, §6, §2

For the next experiment, the system named is Candida albicans. The description is as above. The format is cell-based. The settings on record: Sabouraud 4% dextrose agar pH 5.6, read-out: MIC of isosorbide. As for the experimental part:
as §7, §1, §6, §2

For the next experiment, the system named is Penicillium funicolosium. The experiment is described as above. The format is cell-based. The settings on record: Sabouraud 4% dextrose agar pH 5.6, read-out: MIC of isosorbide. As for the experimental part: as §7, §1, §6, §2
The subject of another experiment is Enterobacter aerogenes. The description is as above. Format: cell-based. The settings on record: Klebsiella aerogenes, CASO agar pH 7, read-out: MIC of isosorbide. As for the experimental part:
as §7, §1, §6, §2

The next experiment relates to Klebsiella pneumoniae. The description is as above. Format: cell-based. The settings on record: CASO agar pH 7, read-out: MIC of isosorbide. As to the method: as §7, §1, §6, §2
The subject of a further experiment is Aspergillus brasiliensis. Described as above. Format: cell-based. The following applies: Sabouraud 4% dextrose agar pH 5.6, read-out: MIC of isosorbide. As to the method:
as §7, §1, §6, §2

Where two headings read alike, the source gives them in different places.

`CCCCCCCC(=O)O` [caprylic acid]: the “antimicrobial activity (in words)” value in experiment [1] (at a pH of 6 or above) is on record as “no antimicrobial activity”; in [1] it was “antimicrobially effective”.
Turning to isosorbide monocaprylate, in experiment [2] (concluded from Tables 1 and 2, not tested as pure compound), the “antimicrobial activity (in words)” value is on record as “significant antimicrobial activity”.
Broadly, the MIC is the smallest concentration in the dilution series that meets the test's criterion for growth inhibition. `O[C@@H]1CO[C@H]2[C@@H]1OC[C@@H]2O` [isosorbide]: the MIC in the experiment with Staphylococcus aureus, in the experiment on Pseudomonas oleovorans, in the experiment with Escherichia coli, in the experiment with Citrobacter freundii, with Fusarium solani and in the experiment with Proteus vulgaris was 10000 µg/mL throughout. Besides, the MIC in the experiment with Pseudomonas aeruginosa, in the experiment on Aspergillus terreus, in the experiment with Penicillium minioluteum, in the experiment with Candida albicans, in the experiment on Penicillium funicolosium and in the experiment on Enterobacter aerogenes was 10000 µg/mL in each case. Also, the MIC in the experiment with Klebsiella pneumoniae and with Aspergillus brasiliensis was 10000 µg/mL throughout. Further, the “antimicrobial activity (in words)” value in experiment [2] (summary of the MICs of Table 2) was “neither isosorbide nor isosorbide dicaprylate are antimicrobially active”.
